Reference: the supplement of paper PMC10307832

How the values were obtained:
Assay in all cases: relative viability (nuclei count vs DMSO), 5 days (fraction); higher = more cells survive
[1] = compound: C/C(=N\NC(=S)N1CCC1)/C2=CC=CC=N2 + Nc1nc2[nH]cc(CCc3ccc(C(=O)N[C@@H](CCC(=O)O)C(=O)O)cc3)c2c(=O)[nH]1 [Pemetrexed] (partner 0.2 µM)
How it was run: (§1)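 Cells from lung cancer lines were seeded into 1536-well plates and, one day later, dosed by pin tool. Treatments were either a single drug or a fixed dose of an anchor drug with five library-drug doses (not always all listed) in √10 steps. After 5 days, nuclei were stained in a one-step fixation (final 0.05% Triton X-100, 1% formaldehyde, 1 ug/ml Hoechst) and counted on 4× images, and relative viability is the treated-to-vehicle nuclei ratio, as the median of duplicate plates.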

[2] = compound: C/C(=N\NC(=S)N1CCC1)/C2=CC=CC=N2 + COc1cccc2cc(-c3nc([C@H]4CC[C@H](C(=O)O)CC4)n4ncnc(N)c34)[nH]c12 [OSI-027] (partner 0.5 µM)
How it was run: as §1

[3] = compound: C/C(=N\NC(=S)N1CCC1)/C2=CC=CC=N2 + COc1cc2c(Oc3ccc(NC(=O)C4(C(=O)Nc5ccc(F)cc5)CC4)cc3F)ccnc2cc1OCCCN1CCOCC1 [Foretinib] (partner 0.25 µM)
How it was run: as §1

[4] = compound: C/C(=N\NC(=S)N1CCC1)/C2=CC=CC=N2 + NC(=O)Nc1cc(-c2cccc(F)c2)sc1C(=O)N[C@H]1CCCNC1 [AZD7762] (partner 0.2 µM)
How it was run: as §1

Cell Line: NCI-H661
- relative viability ([1]; first compound 0.05 µM): 0.286
- relative viability ([1]; first compound 0.1581 µM): 0.278
- relative viability ([1]; first compound 0.5 µM): 0.244
- relative viability ([1]; first compound 1.581 µM): 0.229
- relative viability ([1]; first compound 5 µM): 0.223
- relative viability ([2]; first compound 0.05 µM): 0.243
- relative viability ([2]; first compound 0.1581 µM): 0.208
- relative viability ([2]; first compound 0.5 µM): 0.169
- relative viability ([2]; first compound 1.581 µM): 0.188
- relative viability ([2]; first compound 5 µM): 0.19
- relative viability ([3]; first compound 0.05 µM): 0.294
- relative viability ([3]; first compound 0.1581 µM): 0.307
- relative viability ([3]; first compound 0.5 µM): 0.244
- relative viability ([3]; first compound 1.581 µM): 0.264
- relative viability ([3]; first compound 5 µM): 0.24

Cell Line: UMC-11
- relative viability ([1]; first compound 0.05 µM): 0.221
- relative viability ([1]; first compound 0.1581 µM): 0.169
- relative viability ([1]; first compound 0.5 µM): 0.159
- relative viability ([1]; first compound 1.581 µM): 0.141
- relative viability ([1]; first compound 5 µM): 0.138
- relative viability ([2]; first compound 0.05 µM): 0.235
- relative viability ([2]; first compound 0.1581 µM): 0.186
- relative viability ([2]; first compound 0.5 µM): 0.183
- relative viability ([2]; first compound 1.581 µM): 0.181
- relative viability ([2]; first compound 5 µM): 0.142
- relative viability ([3]; first compound 0.05 µM): 0.249
- relative viability ([3]; first compound 0.1581 µM): 0.212
- relative viability ([3]; first compound 0.5 µM): 0.223
- relative viability ([3]; first compound 1.581 µM): 0.183
- relative viability ([3]; first compound 5 µM): 0.185

Cell Line: NCI-H1650
- relative viability ([1]; first compound 0.05 µM): 0.308
- relative viability ([1]; first compound 0.1581 µM): 0.186
- relative viability ([1]; first compound 0.5 µM): 0.202
- relative viability ([1]; first compound 1.581 µM): 0.221
- relative viability ([1]; first compound 5 µM): 0.203
- relative viability ([2]; first compound 0.05 µM): 0.158
- relative viability ([2]; first compound 0.1581 µM): 0.216
- relative viability ([2]; first compound 0.5 µM): 0.17
- relative viability ([2]; first compound 1.581 µM): 0.152
- relative viability ([2]; first compound 5 µM): 0.184
- relative viability ([3]; first compound 0.05 µM): 0.185
- relative viability ([3]; first compound 0.1581 µM): 0.225
- relative viability ([3]; first compound 0.5 µM): 0.175
- relative viability ([3]; first compound 1.581 µM): 0.205
- relative viability ([3]; first compound 5 µM): 0.215

Cell Line: EBC-1
- relative viability ([3]; first compound 0.05 µM): 0.0973
- relative viability ([3]; first compound 0.1581 µM): 0.107
- relative viability ([3]; first compound 0.5 µM): 0.131
- relative viability ([3]; first compound 1.581 µM): 0.0785
- relative viability ([3]; first compound 5 µM): 0.0979

Cell Line: SK-LU-1
- relative viability ([1]; first compound 0.05 µM): 0.293
- relative viability ([1]; first compound 0.1581 µM): 0.28
- relative viability ([1]; first compound 0.5 µM): 0.282
- relative viability ([1]; first compound 1.581 µM): 0.187
- relative viability ([1]; first compound 5 µM): 0.246
- relative viability ([2]; first compound 0.05 µM): 0.145
- relative viability ([2]; first compound 0.1581 µM): 0.136
- relative viability ([2]; first compound 0.5 µM): 0.131
- relative viability ([2]; first compound 1.581 µM): 0.124
- relative viability ([2]; first compound 5 µM): 0.151
- relative viability ([3]; first compound 0.05 µM): 0.214
- relative viability ([3]; first compound 0.1581 µM): 0.19
- relative viability ([3]; first compound 0.5 µM): 0.221
- relative viability ([3]; first compound 1.581 µM): 0.149
- relative viability ([3]; first compound 5 µM): 0.172

Cell Line: SK-MES-1
- relative viability ([1]; first compound 0.05 µM): 0.248
- relative viability ([1]; first compound 0.1581 µM): 0.258
- relative viability ([1]; first compound 0.5 µM): 0.23
- relative viability ([1]; first compound 1.581 µM): 0.177
- relative viability ([1]; first compound 5 µM): 0.207
- relative viability ([2]; first compound 0.05 µM): 0.197
- relative viability ([2]; first compound 0.1581 µM): 0.182
- relative viability ([2]; first compound 0.5 µM): 0.157
- relative viability ([2]; first compound 1.581 µM): 0.137
- relative viability ([2]; first compound 5 µM): 0.186
- relative viability ([3]; first compound 0.05 µM): 0.201
- relative viability ([3]; first compound 0.1581 µM): 0.257
- relative viability ([3]; first compound 0.5 µM): 0.223
- relative viability ([3]; first compound 1.581 µM): 0.166
- relative viability ([3]; first compound 5 µM): 0.238

Cell Line: NCI-H1792
- relative viability ([4]; first compound 0.05 µM): 0.107
- relative viability ([4]; first compound 0.1581 µM): 0.0965
- relative viability ([4]; first compound 0.5 µM): 0.0559
- relative viability ([4]; first compound 1.581 µM): 0.0274
- relative viability ([4]; first compound 5 µM): 0.0333
- relative viability ([1]; first compound 0.05 µM): 0.126
- relative viability ([1]; first compound 0.1581 µM): 0.0786
- relative viability ([1]; first compound 0.5 µM): 0.0748
- relative viability ([1]; first compound 1.581 µM): 0.0765
- relative viability ([1]; first compound 5 µM): 0.0786
- relative viability ([2]; first compound 0.05 µM): 0.417
- relative viability ([2]; first compound 0.1581 µM): 0.301
- relative viability ([2]; first compound 0.5 µM): 0.25
- relative viability ([2]; first compound 1.581 µM): 0.248
- relative viability ([2]; first compound 5 µM): 0.205

Cell Line: SW 1573
- relative viability ([1]; first compound 0.05 µM): 0.0863
- relative viability ([1]; first compound 0.1581 µM): 0.149
- relative viability ([1]; first compound 0.5 µM): 0.169
- relative viability ([1]; first compound 1.581 µM): 0.0609
- relative viability ([1]; first compound 5 µM): 0.0817
- relative viability ([2]; first compound 0.05 µM): 0.0449
- relative viability ([2]; first compound 0.1581 µM): 0.0562
- relative viability ([2]; first compound 0.5 µM): 0.134
- relative viability ([2]; first compound 1.581 µM): 0.065
- relative viability ([2]; first compound 5 µM): 0.0544
- relative viability ([3]; first compound 0.05 µM): 0.146
- relative viability ([3]; first compound 0.1581 µM): 0.155
- relative viability ([3]; first compound 0.5 µM): 0.128
- relative viability ([3]; first compound 1.581 µM): 0.142
- relative viability ([3]; first compound 5 µM): 0.0856

Cell Line: A549
- relative viability ([3]; first compound 0.05 µM): 0.0523
- relative viability ([3]; first compound 0.1581 µM): 0.0338
- relative viability ([3]; first compound 0.5 µM): 0.0289
- relative viability ([3]; first compound 1.581 µM): 0.0404
- relative viability ([3]; first compound 5 µM): 0.0168

Cell Line: NCI-H1703
- relative viability ([4]; first compound 0.05 µM): 0.0509
- relative viability ([4]; first compound 0.1581 µM): 0.0548
- relative viability ([4]; first compound 0.5 µM): 0.0472
- relative viability ([4]; first compound 1.581 µM): 0.114
- relative viability ([4]; first compound 5 µM): 0.102
- relative viability ([3]; first compound 0.05 µM): 0.163
- relative viability ([3]; first compound 0.1581 µM): 0.142
- relative viability ([3]; first compound 0.5 µM): 0.163
- relative viability ([3]; first compound 1.581 µM): 0.206
- relative viability ([3]; first compound 5 µM): 0.246

Cell Line: NCI-H520
- relative viability ([1]; first compound 0.05 µM): 0.128
- relative viability ([1]; first compound 0.1581 µM): 0.16
- relative viability ([1]; first compound 0.5 µM): 0.145
- relative viability ([1]; first compound 1.581 µM): 0.122
- relative viability ([1]; first compound 5 µM): 0.146
- relative viability ([2]; first compound 0.05 µM): 0.153
- relative viability ([2]; first compound 0.1581 µM): 0.192
- relative viability ([2]; first compound 0.5 µM): 0.158
- relative viability ([2]; first compound 1.581 µM): 0.169
- relative viability ([2]; first compound 5 µM): 0.242
- relative viability ([3]; first compound 0.05 µM): 0.153
- relative viability ([3]; first compound 0.1581 µM): 0.162
- relative viability ([3]; first compound 0.5 µM): 0.159
- relative viability ([3]; first compound 1.581 µM): 0.17
- relative viability ([3]; first compound 5 µM): 0.184

Cell Line: NCI-H1563
- relative viability ([1]; first compound 0.05 µM): 0.525
- relative viability ([1]; first compound 0.1581 µM): 0.571
- relative viability ([1]; first compound 0.5 µM): 0.505
- relative viability ([1]; first compound 1.581 µM): 0.41
- relative viability ([1]; first compound 5 µM): 0.47
- relative viability ([2]; first compound 0.05 µM): 0.5
- relative viability ([2]; first compound 0.1581 µM): 0.541
- relative viability ([2]; first compound 0.5 µM): 0.506
- relative viability ([2]; first compound 1.581 µM): 0.541
- relative viability ([2]; first compound 5 µM): 0.542
- relative viability ([3]; first compound 0.05 µM): 0.543
- relative viability ([3]; first compound 0.1581 µM): 0.63
- relative viability ([3]; first compound 0.5 µM): 0.576
- relative viability ([3]; first compound 1.581 µM): 0.529
- relative viability ([3]; first compound 5 µM): 0.581

Cell Line: NCI-H2009
- relative viability ([1]; first compound 0.05 µM): 0.0997
- relative viability ([1]; first compound 0.1581 µM): 0.122
- relative viability ([1]; first compound 0.5 µM): 0.134
- relative viability ([1]; first compound 1.581 µM): 0.15
- relative viability ([1]; first compound 5 µM): 0.122
- relative viability ([2]; first compound 0.05 µM): 0.0946
- relative viability ([2]; first compound 0.1581 µM): 0.153
- relative viability ([2]; first compound 0.5 µM): 0.17
- relative viability ([2]; first compound 1.581 µM): 0.129
- relative viability ([2]; first compound 5 µM): 0.12
- relative viability ([3]; first compound 0.05 µM): 0.143
- relative viability ([3]; first compound 0.1581 µM): 0.183
- relative viability ([3]; first compound 0.5 µM): 0.186
- relative viability ([3]; first compound 1.581 µM): 0.213
- relative viability ([3]; first compound 5 µM): 0.184
